Source: the NIST ThermoML archive (doi:10.1021/je060271a)

Details: 343.16 K, Liquid, Vibrating tube method

CCCCC(=O)OCC(COC(=O)CCCC)(COC(=O)CCCC)COC(=O)CCCC [pentaerythritol tetrapentanoate]
Details | mass density [kg/m3]
3535.3 kPa | 981.2
3629.9 kPa | 981.3
3647.8 kPa | 981.5
3662.8 kPa | 981.3
3677.4 kPa | 981.3
3695.4 kPa | 981.4
3713.8 kPa | 981.4
3733.2 kPa | 981.4
3754.8 kPa | 981.5
3785.2 kPa | 981.5
3811.5 kPa | 981.5
3838.2 kPa | 981.6
3865.5 kPa | 981.5
5098.9 kPa | 982.6
5142.8 kPa | 982.5
5167.8 kPa | 982.6
5186.3 kPa | 982.5
5201 kPa | 982.6
5210.3 kPa | 982.5
5224.5 kPa | 982.5
5255.1 kPa | 982.6
5300.5 kPa | 982.6
5325.2 kPa | 982.7
5345.4 kPa | 982.7
5483.5 kPa | 982.9
5624.6 kPa | 983
5676.1 kPa | 983
5700.4 kPa | 982.9
5724.9 kPa | 982.9
5754 kPa | 983
5779.4 kPa | 983.1
5804.5 kPa | 983.1
5829.4 kPa | 982.9
5859.3 kPa | 983
5884.9 kPa | 983.1
5910.4 kPa | 983.1
5937.2 kPa | 983
5968 kPa | 983.3
5994 kPa | 983.1
6020.7 kPa | 983.2
6053.2 kPa | 983.2
6080.4 kPa | 983.2
6108.6 kPa | 983.3
6137.6 kPa | 983.3
6165.8 kPa | 983.2
6199.5 kPa | 983.3
6228 kPa | 983.4
6262.9 kPa | 983.4
6292.8 kPa | 983.4
6323.1 kPa | 983.4
6352.3 kPa | 983.4
6382.9 kPa | 983.5
6408.4 kPa | 983.5
6433.7 kPa | 983.5
6459.6 kPa | 983.5
6491.2 kPa | 983.7
6518.6 kPa | 983.6
6545.1 kPa | 983.6
6572.4 kPa | 983.7
6599.5 kPa | 983.7
6632.2 kPa | 983.7
6659.3 kPa | 983.6
6686.8 kPa | 983.6
6719.6 kPa | 983.7
6747.4 kPa | 983.8
6804.2 kPa | 983.8
6838.6 kPa | 983.8
6899.2 kPa | 983.8
6929.1 kPa | 983.9
6959.5 kPa | 983.9
6989.5 kPa | 984
7026.2 kPa | 983.9
7056.7 kPa | 984
7088 kPa | 984.1
7120.1 kPa | 984.1
7261.4 kPa | 984.1
7294.7 kPa | 984.3
7328.4 kPa | 984.1
7396.9 kPa | 984.2
7437.8 kPa | 984.2
7472.9 kPa | 984.3
